Measurements: ChEMBL document CHEMBL1201862, “PubChem BioAssay data set” (2004)
“And” between values parts separate entries of the source, which are not always exact repeats. Equal entries are not always repeated.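 Step 1: Grow cells in 96-well plates. Step 2: Expose to compound for 48 hours at 5 concentrations. Step 3: Interpolate endpoints linearly; if unreached, use highest concentration. GI50 marks 50% less growth.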 The source made the active and inactive calls. No stated cut-off is given here; in the data, active = GI50 up to about 1.1 µM and inactive = higher.

Experiments:
Experiment in all cases: NCI tumour cell line growth inhibition, 48 h
A498 = test system: A498
A549 = test system: A549
ACHN = test system: ACHN
BT-549 = test system: BT-549
CCRF-CEM = test system: CCRF-CEM
EKVX = test system: EKVX
HL-60 = test system: HL-60
HOP-92 = test system: HOP-92
Hs-578T = test system: Hs-578T
KM12 = test system: KM12
M14 = test system: M14
MDA-N = test system: MDA-N
MOLT-4 = test system: MOLT-4
NCI-H460 = test system: NCI-H460
OVCAR-4 = test system: OVCAR-4
PC-3 = test system: PC-3
SF-268 = test system: SF-268
SF-295 = test system: SF-295
SK-MEL-2 = test system: SK-MEL-2
DU-145 = test system: DU-145

Row | SMILES | GI50 (A498) | GI50 (A549) | GI50 (ACHN) | GI50 (BT-549) | GI50 (CCRF-CEM) | GI50 (EKVX) | GI50 (HL-60) | GI50 (HOP-92) | GI50 (Hs-578T) | GI50 (KM12) | GI50 (M14) | GI50 (MDA-N) | GI50 (MOLT-4) | GI50 (NCI-H460) | GI50 (OVCAR-4) | GI50 (PC-3) | GI50 (SF-268) | GI50 (SF-295) | GI50 (SK-MEL-2) | GI50 (DU-145)
1 | NC(Cc1ccccc1)P(=O)(O)O (centres undefined) | > 100 µM (inactive) | > 100 µM (inactive) | > 100 µM (inactive) | > 100 µM (inactive) | > 100 µM (inactive) | > 100 µM (inactive) | > 100 µM (inactive) | > 100 µM (inactive) | > 100 µM (inactive) | > 100 µM (inactive) | > 100 µM (inactive) | > 100 µM (inactive) | > 100 µM (inactive) | > 100 µM (inactive) | > 100 µM (inactive) | > 100 µM (inactive) | > 100 µM (inactive) | > 100 µM (inactive) | > 100 µM (inactive) | 
2 | CCCC(C)NC(=O)c1ccc(N(C)Cc2cnc3nc(N)nc(N)c3n2)cc1 (centres undefined) | 69 µM (inactive) |  | 35.2 µM (inactive) | 15.5 µM (inactive) | 26.2 µM (inactive) | 56.9 µM (inactive) | 16.4 µM (inactive) |  | 16.2 µM (inactive) | 31.3 µM (inactive) | 11.5 µM (inactive) | 14.6 µM (inactive) | 33.2 µM (inactive) | 21.5 µM (inactive) |  | 9.84 µM (inactive) | 12 µM (inactive) | 27.6 µM (inactive) | 21.8 µM (inactive) | 27.2 µM (inactive)
3 | C=CCn1c(S)nnc1C12CC3CC(CC(C3)C1)C2 | > 100 µM (inactive) |  | 54.3 µM (inactive) | 50.6 µM (inactive) | 20.1 µM (inactive) |  | 17.2 µM (inactive) |  | > 100 µM (inactive) | 75.5 µM (inactive) | 61 µM (inactive) | 45.4 µM (inactive) | 20.9 µM (inactive) | 53.5 µM (inactive) | 58.7 µM (inactive) | 32.7 µM (inactive) | > 100 µM (inactive) | 41.3 µM (inactive) | 67.8 µM (inactive) | 69.3 µM (inactive)
4 | Cc1ccc2c(c1)nc(N)n[n+]2[O-] | > 100 µM (inactive) | > 100 µM (inactive) | > 100 µM (inactive) | > 100 µM (inactive) | > 100 µM (inactive) | > 100 µM (inactive) | > 100 µM (inactive) |  | > 100 µM (inactive) | > 100 µM (inactive) | > 100 µM (inactive) | > 100 µM (inactive) | > 100 µM (inactive) | > 100 µM (inactive) | > 100 µM (inactive) | > 100 µM (inactive) | > 100 µM (inactive) | > 100 µM (inactive) | > 100 µM (inactive) | > 100 µM (inactive)
5 | COCC1OC(Sc2ccccc2)C(O)C(OC)C1OC (centres undefined) |  | > 100 µM (inactive) | > 100 µM (inactive) | > 100 µM (inactive) | > 100 µM (inactive) and 52.4 µM (inactive) | > 100 µM (inactive) | > 100 µM (inactive) |  | > 100 µM (inactive) | > 100 µM (inactive) | > 100 µM (inactive) | > 100 µM (inactive) | > 100 µM (inactive) | > 100 µM (inactive) | > 100 µM (inactive) | > 100 µM (inactive) | > 100 µM (inactive) | > 100 µM (inactive) | > 100 µM (inactive) | > 100 µM (inactive)
6 | O=[N+]([O-])/C(C(Cl)=C(Cl)Cl)=C(\Nc1cccc2cccnc12)SCc1ccccc1 | 26.7 µM (inactive) | 31.3 µM (inactive) | 23.3 µM (inactive) | 16.9 µM (inactive) | 14.9 µM (inactive) | 21.1 µM (inactive) |  |  | < 0.01 µM (active) | 17.2 µM (inactive) | 27.5 µM (inactive) | 31.1 µM (inactive) | 2.21 µM (inactive) | 21 µM (inactive) | 24.4 µM (inactive) | 14.8 µM (inactive) | 17.3 µM (inactive) | 18.7 µM (inactive) | 12.6 µM (inactive) | 21.5 µM (inactive)
7 | CN(C)CCNc1nc(-c2ccc3ccccc3c2)nc2[nH]cnc12 |  | 12.5 µM (inactive) | 2.73 µM (inactive) | 11.2 µM (inactive) | 9.27 µM (inactive) | 4.55 µM (inactive) | 3.93 µM (inactive) |  | 5.18 µM (inactive) | 4.8 µM (inactive) | 11.4 µM (inactive) | 10.7 µM (inactive) | 3.55 µM (inactive) | 3.66 µM (inactive) | 10.7 µM (inactive) | 4.76 µM (inactive) | 8.22 µM (inactive) | 13.7 µM (inactive) | 14.6 µM (inactive) | 10.6 µM (inactive)
8 | COC(O)C(=O)c1c2c(cc3c1CCC3)CCC2 (centres undefined) | > 100 µM (inactive) | > 100 µM (inactive) | > 100 µM (inactive) | > 100 µM (inactive) | 55 µM (inactive) | > 100 µM (inactive) | 22.6 µM (inactive) |  | > 100 µM (inactive) | 70.1 µM (inactive) | > 100 µM (inactive) | > 100 µM (inactive) | > 100 µM (inactive) | > 100 µM (inactive) | > 100 µM (inactive) | > 100 µM (inactive) | > 100 µM (inactive) | > 100 µM (inactive) | > 100 µM (inactive) | > 100 µM (inactive)
9 | CC1CC(N2CCOCC2)=Nc2ccccc2N1Cc1ccccc1 (centres undefined) | 20.5 µM (inactive) | > 100 µM (inactive) | > 100 µM (inactive) | 66.2 µM (inactive) | > 100 µM (inactive) | 90.6 µM (inactive) | 29.8 µM (inactive) |  | 34.4 µM (inactive) | 68.7 µM (inactive) | > 100 µM (inactive) |  |  | > 100 µM (inactive) | 56.2 µM (inactive) | 50.6 µM (inactive) | 74 µM (inactive) | 57.7 µM (inactive) | > 100 µM (inactive) | > 100 µM (inactive)
10 | CCN(CC)Cc1cc(Nc2ccnc3ccc4c(nnn4C)c23)ccc1O |  | 12.2 µM (inactive) | 2.81 µM (inactive) | 18.8 µM (inactive) | 5.06 µM (inactive) | 26.7 µM (inactive) | 9.89 µM (inactive) |  | 15.5 µM (inactive) | 14.9 µM (inactive) | 15.3 µM (inactive) | 11.5 µM (inactive) | 3.86 µM (inactive) | 3.42 µM (inactive) | 7.6 µM (inactive) | 6.82 µM (inactive) | 10.2 µM (inactive) | 12.7 µM (inactive) | 16.1 µM (inactive) | 13.3 µM (inactive)
11 | CC(N/N=C(\S)N1CCCCCC1)c1cccnn1 (centres undefined) | 0.764 µM (active) | 0.301 µM (active) | 0.294 µM (active) | 0.392 µM (active) | 0.112 µM (active) | 0.27 µM (active) | 0.114 µM (active) |  | 13.2 µM (inactive) | 0.525 µM (active) | 0.319 µM (active) | 0.684 µM (active) | 0.111 µM (active) | 0.274 µM (active) | 0.348 µM (active) | 0.104 µM (active) | 0.337 µM (active) | 0.403 µM (active) | 1.27 µM (inactive) | 0.579 µM (active)
